Earlier results as cited in US9082274B2, “Odor generation alarm and method for informing unusual situation” (priority 2008, dated 2015).
Where two headings read alike, the source gives them in different places.

How the values were obtained:
[1] = tested on: skin, eyes
[2] = orally administered; route not printed in b8
[3] = tested on: humans
[4] = tested on: domestic rabbits; details: AIT diluted to 0.1% to 10% with corn oil introduced into the eyes
[5] = tested on: mice; details: exposed for four hours
[6] = tested on: rats; details: exposed for four hours
[7] = tested on: rabbits
[8] = tested on: person; details: concentration in air, ppm by amount of substance
[9] = tested on: person; details: with respect to a person, ppm by amount of substance
[10] = tested on: mice; details: oral

SMILES	effect when entering the eyes ([1]; eye contact)	effect when coming into contact with the skin ([1]; skin contact)	lethal dose (LD50) [2]	lachrymatory effect [3]	solubility in water	ocular findings after instillation [4]	lethal inhaled concentration (inhaled LC50) [5]	lethal inhaled concentration (inhaled LC50) [6]	acute dermal toxicity LD50 [7]	concentration at which a person becomes unable to tolerate the atmosphere / strength of smell [8]	concentration at which a person starts to notice a pungent odor [8]	concentration from which a person recognizes the smell of wasabi [8]	concentration at which a person becomes unable to tolerate the atmosphere / strength of smell ([8]; listed as allyl isothiocyanate)	no observed effect concentration [9]	orally administered lethal dose (LD50) [10]
CS [methyl mercaptan]	reddening and pain when entering the eyes	reddening and pain of the skin	2.4 mg/kg	–	–	–	–	–	–	–	–	–	–	–	–
C=CCN=C=S [AIT, allyl isothiocyanate]	–	–	–	there is a lachrymatory effect on humans	does not dissolve easily in water	nothing more than transient edema and conjunctival hyperemia	155 ppm	173 ppm	88 mg/kg	≥ 10 ppm	~1 ppm	around 5 ppm	10 ppm	74.3 ppm	310 mg/kg
